Data as given in ChEMBL document CHEMBL1154354, “Synthetic peptides containing a conserved sequence motif of the Id protein family modulate vascular smooth muscle cell phenotype” (Bioorg Med Chem Lett, 2009).
Active and inactive are the calls of the source. The rule behind the calls is not given here.

Legend:
[1] = Drug uptake by HSMC assessed as mean fluorescence index after 72 hrs by FACS; type: ADME; conditions: human
[2] = Perinuclear localization in HSMC after 6 hrs by fluorescence microscopy; type: ADME, cell-based; conditions: human
HSMC = assay: (§1) Antiproliferative activity against HSMC expressing Id-protein assessed as reduction in cell growth after 72 hrs by Coulter counting; type: functional; conditions: Homo sapiens
[3] = as §1; type: functional, Homo sapiens; design: scale not given: the % may be the effect or the level left
[4] = Inhibition of PDGF-stimulated HSMC migration after 8 hrs by Boyden chamber assay; type: functional, Homo sapiens; design: scale not given: the % may be the effect or the level left
[5] = biological target: T1, DNA-binding protein inhibitor ID-1 (Homo sapiens) (UniProt P41134); assay: Inhibition of ID1-protein in HSMC assessed as increase in alpha-actin protein level by Western blotting
T1 sequence (whole entry): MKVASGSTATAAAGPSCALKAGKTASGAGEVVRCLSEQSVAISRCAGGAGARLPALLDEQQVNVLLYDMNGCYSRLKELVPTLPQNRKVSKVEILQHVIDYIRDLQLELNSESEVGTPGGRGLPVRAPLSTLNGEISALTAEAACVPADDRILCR

[6] = biological target: T1, DNA-binding protein inhibitor ID-1 (Homo sapiens); assay: Inhibition of ID1-protein in HSMC assessed as increase in alpha-actin mRNA level by real time PCR
[7] = biological target: T1, DNA-binding protein inhibitor ID-1 (Homo sapiens); assay: Binding affinity to ID-HLH domain by CD spectroscoy
[8] = biological target: T1, DNA-binding protein inhibitor ID-1 (Homo sapiens); assay: Decrease in ID1-protein level in HSMC by Western blotting

For `CC[C@H](C)[C@H](NC(=O)[C@H](CCC(=O)O)NC(=O)[C@@H](NC(=O)[C@H](CCCCN)NC(=O)[C@H]1CC[C@@H]([C@H](NC(=O)c2cccc3c2C(=O)OC32c3ccc(O)cc3Oc3cc(O)ccc32)C(=O)O[C@@H](CCCCN)C(=O)N[C@H](C(=O)N[C@@H](CCC(=O)O)C(=O)N[C@H](C(=O)N[C@@H](CC(C)C)C(=O)N[C@@H](CCC(N)=O)C(=O)N[C@@H](Cc2cnc[nH]2)C(=O)N[C@H](C(=O)N[C@H](C(=O)N[C@@H](CC(=O)O)C(=O)N[C@@H](Cc2ccc(O)cc2)C(=O)N[C@@H](CCCCN)C(=O)N[C@@H](CCCCN)C(=O)N[C@@H](CCCCN)C(N)=O)[C@@H](C)CC)C(C)C)[C@@H](C)CC)C(C)C)C1)C(C)C)C(=O)N[C@@H](CC(C)C)C(=O)N[C@@H](CCC(N)=O)C(=O)N[C@@H](Cc1cnc[nH]1)C(=O)N[C@H](C(=O)N[C@H](C(=O)N[C@@H](CC(=O)O)C(=O)N[C@@H](Cc1ccc(O)cc1)C(=O)N[C@@H](CCCCN)C(=O)N[C@@H](CCCCN)C(=O)N[C@@H](CCCCN)C(N)=O)[C@@H](C)CC)C(C)C`, the Activity [1] was “Dose-dependent effect” and the Activity [2] was “Active”.
In the case of “Ac-LYDMNGCYSRLKELVPTLPQNRKVSKVEILQHVIDYIRDLQ-NH2”, the Activity (HSMC) is reported as “Toxic”.
For `CC[C@H](C)[C@H](NC(=O)[C@H](CCC(=O)O)NC(=O)[C@@H](NC(=O)[C@H](CCCCN)NC(=O)C1CCC(C(NC(=O)c2ccccc2)C(=O)N[C@@H](CCCCN)C(=O)N[C@H](C(=O)N[C@@H](CCC(=O)O)C(=O)N[C@H](C(=O)N[C@@H](CC(C)C)C(=O)N[C@@H](CCC(N)=O)C(=O)N[C@@H](Cc2cnc[nH]2)C(=O)N[C@H](C(=O)N[C@H](C(=O)N[C@@H](CC(=O)O)C(=O)N[C@@H](Cc2ccc(O)cc2)C(N)=O)[C@@H](C)CC)C(C)C)[C@@H](C)CC)C(C)C)C1)C(C)C)C(=O)N[C@@H](CC(C)C)C(=O)N[C@@H](CCC(N)=O)C(=O)N[C@@H](Cc1cnc[nH]1)C(=O)N[C@H](C(=O)N[C@H](C(=O)N[C@@H](CC(=O)O)C(=O)N[C@@H](Cc1ccc(O)cc1)C(N)=O)[C@@H](C)CC)C(C)C` (stereo partly drawn), the Activity [3] was 40% and the Activity [4] was 20%.
Work on `CC[C@H](C)[C@H](NC(=O)[C@H](Cc1ccc(O)cc1)NC(=O)[C@H](CC(=O)O)NC(=O)[C@@H](NC(=O)[C@@H](NC(=O)[C@H](Cc1cnc[nH]1)NC(=O)[C@H](CCC(N)=O)NC(=O)[C@H](CC(C)C)NC(=O)[C@@H](NC(=O)[C@H](CCC(=O)O)NC(=O)[C@@H](NC(=O)[C@H](CCCCN)NC(=O)C1CCC(C(NC(=O)c2ccccc2)C(=O)N[C@@H](CCCCN)C(=O)N[C@H](C(=O)N[C@@H](CCC(=O)O)C(=O)N[C@H](C(=O)N[C@@H](CC(C)C)C(=O)N[C@@H](CCC(N)=O)C(=O)N[C@@H](Cc2cnc[nH]2)C(=O)N[C@H](C(=O)N[C@H](C(=O)N[C@@H](CC(=O)O)C(=O)N[C@@H](Cc2ccc(O)cc2)C(=O)N[C@H](C(=O)N[C@@H](CCCNC(=N)N)C(=O)N[C@@H](CC(C)C)C(=O)N[C@@H](CC(=O)O)C(=O)N[C@@H](CCC(N)=O)C(N)=O)[C@@H](C)CC)[C@@H](C)CC)C(C)C)[C@@H](C)CC)C(C)C)C1)C(C)C)[C@@H](C)CC)C(C)C)[C@@H](C)CC)C(=O)N[C@@H](CCCNC(=N)N)C(=O)N[C@@H](CC(C)C)C(=O)N[C@@H](CC(=O)O)C(=O)N[C@@H](CCC(N)=O)C(N)=O` (stereo partly drawn) yielded an Activity [3] of 30%.
For H-KVEILQHVIDYIRDLQ-OH, the Activity (HSMC) was “inactive”.
In the case of `CC[C@H](C)[C@H](NC(=O)[C@H](CCC(=O)O)NC(=O)[C@@H](NC(=O)[C@H](CCCCN)NC(=O)[C@H]1CC[C@@H]([C@H](NC(=O)c2ccccc2)C(=O)N[C@@H](CCCCN)C(=O)N[C@H](C(=O)N[C@@H](CCC(=O)O)C(=O)N[C@H](C(=O)N[C@@H](CC(C)C)C(=O)N[C@@H](CCC(N)=O)C(=O)N[C@@H](Cc2cnc[nH]2)C(=O)N[C@H](C(=O)N[C@H](C(=O)N[C@@H](CC(=O)O)C(=O)N[C@@H](Cc2ccc(O)cc2)C(N)=O)[C@@H](C)CC)C(C)C)[C@@H](C)CC)C(C)C)C1)C(C)C)C(=O)N[C@@H](CC(C)C)C(=O)N[C@@H](CCC(N)=O)C(=O)N[C@@H](Cc1cnc[nH]1)C(=O)N[C@H](C(=O)N[C@H](C(=O)N[C@@H](CC(=O)O)C(=O)N[C@@H](Cc1ccc(O)cc1)C(N)=O)[C@@H](C)CC)C(C)C`, the Activity [5] is reported as “Dose-dependent effect”, the Activity [3] is reported as 40% and the Activity [6] is reported as “Dose-dependent effect”. For the same compound, the K0.5 [7] was 6.6 µM and the Activity [8] was “Active”.
In the case of `CC[C@H](C)[C@H](NC(=O)[C@H](CCC(=O)O)NC(=O)[C@@H](NC(=O)[C@H](CCCCN)NC(=O)[C@@H]1CC[C@H]([C@@H](NC(=O)c2ccccc2)C(=O)N[C@@H](CCCCN)C(=O)N[C@H](C(=O)N[C@@H](CCC(=O)O)C(=O)N[C@H](C(=O)N[C@@H](CC(C)C)C(=O)N[C@@H](CCC(N)=O)C(=O)N[C@@H](Cc2cnc[nH]2)C(=O)N[C@H](C(=O)N[C@H](C(=O)N[C@@H](CC(=O)O)C(=O)N[C@@H](Cc2ccc(O)cc2)C(N)=O)[C@@H](C)CC)C(C)C)[C@@H](C)CC)C(C)C)C1)C(C)C)C(=O)N[C@@H](CC(C)C)C(=O)N[C@@H](CCC(N)=O)C(=O)N[C@@H](Cc1cnc[nH]1)C(=O)N[C@H](C(=O)N[C@H](C(=O)N[C@@H](CC(=O)O)C(=O)N[C@@H](Cc1ccc(O)cc1)C(N)=O)[C@@H](C)CC)C(C)C`, the Activity [3] is reported as 40%.
